Holding throughout (assay type): functional
One assay relates to Abutilon theophrasti. Kind of assay: Herbicidal activity against Abutilon theophrasti (velvetleaf) plant at 1200 g/ha applied as spray during post-emergence after 2 weeks under green house conditions.
The next assay deals with Solanum lycopersicum. Kind of assay: Herbicidal activity against Solanum lycopersicum (tomato) plant at 1200 g/ha applied as spray during post-emergence after 2 weeks under green house conditions.
For a further assay, the system named is Tagetes. The experiment in a line: Herbicidal activity against Tagetes (marigold) plant at 1200 g/ha applied as spray during post-emergence after 2 weeks under green house conditions.

For the compound `CC(C)OC(=O)c1cc(N2C(=O)CN(Cc3ccccc3)CC2=O)c(F)cc1Cl`, the Activity in the assay on Abutilon theophrasti stood at 0%; with Solanum lycopersicum it was 10%; with Tagetes it was 0%.

For the compound `C#CCOc1cc(N2C(=O)CN(C)CC2=O)c(F)cc1Cl`, the Activity with Abutilon theophrasti turned out to be 95%; in the assay on Solanum lycopersicum, 75%; in the assay on Tagetes it was 0%.

Consider `O=C1CN2CCCCC2C(=O)N1c1cc(Cl)c(Cl)cc1F` (configuration not stated), for which the Activity was found to be 90% in the assay with Abutilon theophrasti, 75% in the assay with Solanum lycopersicum and 0% in the assay on Tagetes.

For the compound `O=C1CN2CCCCC2C(=O)N1c1cc(OC2CCCC2)c(Cl)cc1F` (configuration not stated), the Activity in the assay on Abutilon theophrasti is 90%; in the assay with Solanum lycopersicum, 60%; in the assay on Tagetes, 10%.

With `COc1cc(N2C(=O)CN3CCCCC3C2=O)c(F)cc1Cl` (configuration not stated), the Activity in the assay on Abutilon theophrasti is recorded as 50%; in the assay with Solanum lycopersicum, 15%; in the assay with Tagetes, 0%.

Regarding `CC(C)(C)N1CC(=O)N(c2cc(OC3CCCC3)c(Cl)cc2F)C(=O)C1`, the Activity stood at 25% with Abutilon theophrasti, 0% with Solanum lycopersicum and 0% in the assay on Tagetes.

`CN1CC(=O)N(c2cc(OC3CCCC3)c(Cl)cc2F)C(=O)C1`: the Activity amounted to 75% in the assay with Abutilon theophrasti, 0% in the assay with Solanum lycopersicum and 0% in the assay with Tagetes.

For `O=C1CN2CCCCC2C(=O)N1c1ccc(Cl)cc1F` (configuration not stated), the Activity with Abutilon theophrasti stood at 80%; in the assay on Solanum lycopersicum, 35%; with Tagetes it was 15%.

Consider `O=C1CN2CCCC2C(=O)N1c1cc(OC2CCCC2)c(Cl)cc1F` (configuration not stated), for which the Activity is 50% in the assay on Abutilon theophrasti, 0% in the assay on Solanum lycopersicum and 0% with Tagetes.
